Experiment: in vivo
Design: species or system swine
Conditions: for AUMC / AUMClast / AUCINF / AUC_Exp / AUC∞ extrpl / Lamda_HL / Lamda_Z / λZ / T1/2λZ: both; for Lamda_HL / Lamda_Z / λZ / T1/2λZ: swine
Method: Blood samples for firocoxib determination were collected from the sows and three piglets/litter (two male and one female piglet at each time point) at 0, 2, 4, 6, 8, 12, 24, 48, 72, 96, and 120 h post-drug injection to the sow. The blood sample from each sow (8 mL/sample) was collected via the left or right jugular vein using a 25.4-mm, 16-gauge hypodermic needle (Air-Tite Products, Virginia Beach, Va.) attached to a 12-mL Luer-Lok syringe (TycoHealth Care, Mansfield, Mass.). During blood collection, a pig snare was used for manual restraint of each sow in her crate. The blood samples (2 mL/sample) from the piglets were collected from the left or right cranial vena cava using a 3.8-cm, 20-gauge hypodermic needle (TycoHealth Care, Mansfield, Mass.) attached to a 3-mL syringe (TycoHealth Care, Mansfield, Mass.). Physical restraint of the piglet was achieved by placing the animal in a supine position during sample collection. Blood samples were transferred to 6-mL evacuated tubes that contained lithium heparin (Vacuette plasma tubes, Greiner Bio-One, Monroe, N.C.) that were stored on ice for up to 2 h before processing. The blood samples were centrifuged for 10 min at 1,500×g. The plasma was then removed, placed in cryovials, and frozen at −80° C. until analysis.
On Day 0, the pharmacokinetic portion of the study commenced. The test article was administered intramuscularly in the right neck to sows. Blood samples for Firocoxib determination were collected by jugular venipuncture from sows and 3 piglets/litter (2 male and one female at each timepoint) at 0, 2, 4, 6, 8, 12, 24, 48, 72, 96 and 120 hours after drug injection in the sow.
Plasma concentrations of firocoxib were determined using high-pressure liquid chromatography (Agilent 1100 Pump, Column Compartment and Autosampler, Agilent Technologies, Santa Clara, Calif., USA) with mass spectrometry detection (LTQ Ion Trap, Thermo Scientific, San Jose, Calif., USA). Briefly, frozen samples or standards were thawed at room temperature and rigorously vortexed once completely thawed. […] Plasma samples, plasma spikes, plasma quality control samples, and blanks (100 μL) were then protein-precipitated in 1.5-mL microcentrifuge tubes with 400 μL acetonitrile/0.1% formic acid. A d6-firocoxib internal standard was incorporated into the acetonitrile precipitating agent at a concentration of 200 ng/mL. The samples were vortexed for 5 seconds after addition of the acetonitrile and centrifuged for 20 min at 3,773×g to sediment the protein pellet. Following centrifugation, the supernatant was poured into cell culture tubes and evaporated to dryness in a Turbovap concentration evaporator at 48° C. The tube contents were reconstituted with 150 μL 25% acetonitrile and transferred to autosampler vials equipped with 300-μL glass inserts. The samples were centrifuged at 770×g before liquid chromatography-mass spectroscopy (LC-MS) analysis.
Twelve calibration spikes were prepared in blank porcine plasma in the concentration range of 1-5,000 ng/mL for the samples from the sows. The samples from the piglets were analyzed using a narrower range of calibration spikes of 1-500 ng/mL. A linear (1/X) fit was used for the piglet plasma samples and the narrower 1-500 ng/mL concentration range. A quadratic (1/X) fit was used for the sow plasma samples and the 1-5,000 ng/mL concentration range.
Plasma and tissue firocoxib concentrations were determined using high-pressure liquid chromatography (Agilent 1100 Pump, Column Compartment and Autosampler, Agilent Technologies, Santa Clara, Calif.) with mass spectrometry detection (LTQ Ion Trap, Thermo Scientific, San Jose, Calif.). A 25-μL injection volume was used for the LC-MS analysis. The mobile phases were A (0.1% formic acid in water) and B (0.1% formic acid in acetonitrile), at flow rates of 0.275 mL/min. […]

## CC1(C)OC(=O)C(OCC2CC2)=C1c1ccc(S(C)(=O)=O)cc1 [firocoxib]
Both sexes, pig, 0.5 mg/kg
  AUC(0-inf): 690 ng·h/mL
Both sexes, pig, 0.5 mg/kg, Piglet AUClast
  AUC(0-t): 635 ng·h/mL
Both sexes, pig, 1 mg/kg
  AUC(0-inf): 3180 ng·h/mL
Both sexes, pig, 1 mg/kg, Piglet AUClast
  AUC(0-t): 2470 ng·h/mL
Both sexes, pig, 1.5 mg/kg
  AUC(0-inf): 4620 ng·h/mL
Both sexes, pig, 1.5 mg/kg, Piglet AUClast
  AUC(0-t): 3900 ng·h/mL
Both sexes, pig, 2 mg/kg
  AUC(0-inf): 3650 ng·h/mL
Both sexes, pig, 2 mg/kg, Piglet AUClast
  AUC(0-t): 3220 ng·h/mL
Both sexes, pig, im
  half-life: 30.9 to 48.7 h
Both sexes, pig, im, 0.5 mg/kg
  AUC(0-inf): 690 ng·h/mL
  Cmax: 9.53 ng/mL
  Tmax: 24 h
Both sexes, pig, im, 0.5 mg/kg, AUC 0-24 h
  AUC(0-t): 176 ng·h/mL
Both sexes, pig, im, 0.5 mg/kg, AUC0-24h
  AUC(0-t): 176 ng·h/mL
Both sexes, pig, im, 0.5 mg/kg, AUC0-last
  AUC(0-t): 635 ng·h/mL
Both sexes, pig, im, 0.5 mg/kg, AUClast
  AUC(0-t): 635 ng·h/mL
Both sexes, pig, im, 0.5 mg/kg, MRT0-last
  MRT last: 44.8 h
Both sexes, pig, im, 0.5 mg/kg, MRT last
  MRT last: 44.8 h
Both sexes, pig, im, 1 mg/kg
  AUC(0-inf): 3180 ng·h/mL
  Cmax: 31 ng/mL
  Tmax: 24 h
Both sexes, pig, im, 1 mg/kg, AUC 0-24 h
  AUC(0-t): 407 ng·h/mL
Both sexes, pig, im, 1 mg/kg, AUC0-24h
  AUC(0-t): 407 ng·h/mL
Both sexes, pig, im, 1 mg/kg, AUC0-last
  AUC(0-t): 2470 ng·h/mL
Both sexes, pig, im, 1 mg/kg, AUClast
  AUC(0-t): 2470 ng·h/mL
Both sexes, pig, im, 1 mg/kg, MRT0-last
  MRT last: 55.4 h
Both sexes, pig, im, 1 mg/kg, MRT last
  MRT last: 55.4 h
Both sexes, pig, im, 1.5 mg/kg
  AUC(0-inf): 4620 ng·h/mL
  Cmax: 53.3 ng/mL
  Tmax: 24 h
Both sexes, pig, im, 1.5 mg/kg, AUC 0-24 h
  AUC(0-t): 662 ng·h/mL
Both sexes, pig, im, 1.5 mg/kg, AUC0-24h
  AUC(0-t): 662 ng·h/mL
Both sexes, pig, im, 1.5 mg/kg, AUC0-last
  AUC(0-t): 3900 ng·h/mL
Both sexes, pig, im, 1.5 mg/kg, AUClast
  AUC(0-t): 3900 ng·h/mL
Both sexes, pig, im, 1.5 mg/kg, MRT0-last
  MRT last: 54.4 h
Both sexes, pig, im, 1.5 mg/kg, MRT last
  MRT last: 52.4 h
Both sexes, pig, im, 2 mg/kg
  AUC(0-inf): 3650 ng·h/mL
  Cmax: 44 ng/mL
  Tmax: 24 h
Both sexes, pig, im, 2 mg/kg, AUC 0-24 h
  AUC(0-t): 609 ng·h/mL
Both sexes, pig, im, 2 mg/kg, AUC0-24h
  AUC(0-t): 609 ng·h/mL
Both sexes, pig, im, 2 mg/kg, AUC0-last
  AUC(0-t): 3220 ng·h/mL
Both sexes, pig, im, 2 mg/kg, AUClast
  AUC(0-t): 3220 ng·h/mL
Both sexes, pig, im, 2 mg/kg, MRT0-last
  MRT last: 51.5 h
Both sexes, pig, im, 2 mg/kg, MRT last
  MRT last: 51.5 h
pig, 0.5 mg/kg
  AUMC: 28433.00 h^2 × ng/mL
  AUMClast: 28,443.00 h * h * ng/mL
pig, 1 mg/kg
  AUMC: 136805.00 h^2 × ng/mL
  AUMClast: 136,805.00 h * h * ng/mL
pig, 1.5 mg/kg
  AUMC: 204246.00 h^2 × ng/mL
  AUMClast: 204,246.00 h * h * ng/mL
pig, 2 mg/kg
  AUMC: 166016.00 h^2 × ng/mL
  AUMClast: 166,016.00 h * h * ng/mL
pig, im, 0.5 mg/kg
  AUCINF: 690.47 ng·h/mL
  AUC_Exp: 0.08%
  AUC∞ extrpl: 0.08%
pig, im, 1 mg/kg
  AUCINF: 3178.00 ng·h/mL
  AUC_Exp: 0.22%
  AUC∞ extrpl: 0.22%
pig, im, 1.5 mg/kg
  AUCINF: 4615.17 ng·h/mL
  AUC_Exp: 0.16%
  AUC∞ extrpl: 0.16%
pig, im, 2 mg/kg
  AUCINF: 3652.32 ng·h/mL
  AUC_Exp: 0.12%
  AUC∞ extrpl: 0.12%
0.5 mg/kg
  Lamda_HL: 30.86 h
  Lamda_Z: 0.02 h⁻¹
  λZ: 0.02 h⁻¹
1 mg/kg
  Lamda_HL: 48.71 h
  Lamda_Z: 0.01 h⁻¹
  λZ: 0.01 h⁻¹
1.5 mg/kg
  Lamda_HL: 37.91 h
  Lamda_Z: 0.02 h⁻¹
  λZ: 0.05 h⁻¹
2 mg/kg
  Lamda_HL: 32.42 h
  Lamda_Z: 0.02 h⁻¹
  λZ: 0.02 h⁻¹
im, 0.5 mg/kg
  T1/2λZ: 30.86 h
im, 1 mg/kg
  T1/2λZ: 48.71 h
im, 1.5 mg/kg
  T1/2λZ: 37.91 h
im, 2 mg/kg
  T1/2λZ: 32.42 h
